A short description of series [1]: Bioavailability was determined in dogs after a dose of 23 uM/kg. It is filed as ADME, organism-based, Canis lupus familiaris. The following applies: dog, in vivo.
The nature of series [2]: Selectivity for PDE5 of human platelets over PDE4 of rat kidney.
In series [3] the target is T1, cGMP-specific 3',5'-cyclic phosphodiesterase (Homo sapiens, UniProt O76074). The series can be described thus: Inhibition of PDE5 of human platelets.
A short description of series [4]: Selectivity for PDE5 of human platelets over PDE2 of rat kidney.
The nature of series [5]: Selectivity for PDE5 of human platelets over PDE6 of bovine retina.
Series [6] can be described thus: Bioavailability was determined in male rats after a dose of 21 uM/kg. The class given is ADME, organism-based. The conditions noted are these: rat, in vivo.
The nature of series [7]: Half life was determined in male rats after a dose of 21 uM/kg. It is filed as ADME, organism-based. The following applies: rat, in vivo.
The nature of series [8]: Half life was determined in dogs after a dose of 23 uM/kg. It is filed as ADME, organism-based, Canis lupus familiaris. The conditions noted are these: dog, in vivo.
The nature of series [9]: Selectivity for PDE5 of human platelets over PDE1 of bovine heart.
Series [10] addresses T1, cGMP-specific 3',5'-cyclic phosphodiesterase. In words: Relaxant effect on rabbit corpus cavernosal tissue strips. The class given is tissue-based, Oryctolagus cuniculus, Corpus cavernosum. The following applies: target entry is the homologue from another species.
Series [11] in a line: Bioavailability was determined in dogs. The class given is ADME, organism-based, Canis lupus familiaris. The conditions noted are these: dog, in vivo.
Series [12] is described as follows: Half life was determined in male rats. It is filed as ADME, organism-based. The conditions noted are these: rat, in vivo.
Series [13] in a line: Bioavailability was determined in male rats. The conditions noted are these: rat, in vivo. The class given is ADME, organism-based.
Series [14] can be described thus: Half life was determined in dogs. The following applies: dog, in vivo. It is filed as ADME, organism-based, Canis lupus familiaris.

For the molecule `CCn1ncc2c(NCc3ccc(OC)c(Cl)c3)c(C(=O)NCc3ccncc3)cnc21`, the values for the bioavailability in series [1] and in series [6] were 66% and 33%, respectively. Further, the IC50 ratio in series [2] was 600; in series [4], 9200; in series [5] it was 47; in series [9], 6400. The same molecule had an IC50 in [3] of 0.8 nM. Besides, the figures for the half-life in series [7] and in series [8] were 1.2 h and 2.3 h, respectively. Moreover, the concentration giving a half-maximal response (EC50) in [10] turned out to be 44 nM.
Consider `CCn1ncc2c(NCc3ccc(OC)c(Cl)c3)c(C(=O)NC[C@@H]3CCCO3)cnc21`, for which the IC50 ratio in series [2] was determined as 760; in [4], 8000; in series [5] it was 22; in [9], 2500. In [3], this molecule returned an IC50 of 1.8 nM.
As for `CCn1ncc2c(N[C@@H](C)C3CCCCC3)c3cc(C#N)ccc3nc21`, inhibition in series [3] was half-maximal at 1 nM (IC50).
On the same count and under the same terms, to `CCn1ncc2c(NCc3ccc(OC)c(Cl)c3)c(C(=O)O)cnc21` belongs 38 nM.
Consider `CCCc1nn(C)c2c(=O)[nH]c(-c3cc(S(=O)(=O)N4CCN(C)CC4)ccc3OCC)nc12`, for which the bioavailability in [11] was found to be 54%; in [13], 15%. Moreover, the half-life in series [12] was 0.3 h; in series [14], 5.2 h.
In the case of `CCn1ncc2c(NCc3ccc(OC)c(Cl)c3)c(C(=O)NCCCCCO)cnc21`, the IC50 ratio in [2] was found to be 340; in [4] it was 5200; in series [5], 35; in series [9], 2700. For the same molecule, in series [3], it took 1.4 nM to reach half-maximal inhibition (IC50).
The corresponding values for `CCn1ncc2c(NCc3ccc(OC)c(Cl)c3)c(C(=O)NCCCN3CCCC3=O)cnc21` are 460, 3000, 19, 2900 and 1.6 nM.
In the case of `CCCCNc1c(C(=O)OCC)cnc2c1cnn2CC` [CARTAZOLATE], the IC50 ratio is 1 in series [2], 45 in [4], 2 in series [5] and 43 in series [9]. Also, the IC50 in [3] turned out to be 180 nM.

These data come from ChEMBL document CHEMBL1134846, “Substituted pyrazolopyridines as potent and selective PDE5 inhibitors: potential agents for treatment of erectile dysfunction” (J Med Chem, 2001).
